Results as given in patent US12274264B2, “Piperonylic acid derivative and application thereof” (SHENYANG SINOCHEM AGROCHEMICALS R&D CO., LTD., priority 2019, dated 2025).
Where two headings read alike, the source gives them in different places.

Tests used:
Assay type in all cases: in vivo
armyworm = test: Determination of activity against armyworm (corn leaf dip, mortality after 72 hours); conditions: foliar, 10 mg/L, third instar, read-out: mortality rates against armyworm
Method: (§1) According to the solubility of test compounds, the compounds are dissolved with acetone or dimethyl sulfoxide, and then diluted with 0.1% Tween 80 solution to form a required concentration of 50 ml test liquid. The content of the acetone or the dimethyl sulfoxide in the total solution is not more than 10%.
The middle leaves of fresh corns were cut into small sections of 3 cm, and dipped into a solution of the required concentration of test compounds for 10 seconds. After dried in shade, the middle leaves were placed in a 9 cm diameter petri dish provided with filter paper. Fourteen regular healthy test insects (third instar) were put into the leaves. Four replicates were set for each treatment. The pure water treatment was set as control check. The treated discs were placed in a chamber of 24° C., 60%-70% relative humidity and day light. After 72 hours, the number of surviving insects was investigated, and the mortality rate was calculated.

diamondback moth = test: Determination of activity against diamondback moth (cabbage leaf disc dip, mortality after 72 hours); conditions: Plutella xylostella, foliar, 10 mg/L, second instar, read-out: mortality rates against diamondback moth
Method: as §1
The leaves of cabbage grown in greenhouse were selected, removed the surface waxy layers, punched into circular leaf discs with a diameter of 2 cm by using a puncher, and dipped into a solution of the required concentration of test compounds for 10 seconds. After dried in shade, the circular leaf discs were placed in a 9 cm diameter petri dish provided with filter paper. Ten regular healthy test insects (second instar) were put into the leaf discs. Four replicates were set for each treatment. The pure water treatment was set as control check. The treated discs were placed in a chamber of 24° C., 60%-70% relative humidity and day light. After 72 hours, the number of surviving insects was investigated, and the mortality rate was calculated.

[1] = test system: western flower thrips nymphs; test: Determination of activity against western flower thrips nymphs (sprayed kidney bean leaves, mortality after 72 hours); conditions: for mortality at 600 µg/mL / mortality at 10 µg/mL / mortality at 100 µg/mL: Frankliniella occidentalis; for mortality at 600 µg/mL: 600 mg/L, read-out: mortality rates against western flower thrips nymphs; for mortality at 10 µg/mL / mortality at 100 µg/mL: read-out: Mortality (%) against Western Flower Thrips Nymphs
Method: as §1
Fresh kidney bean leaves cultured in the glasshouse were selected and uniformly sprayed with 1 ml of the test liquid by using a handheld Airbrush. The leaves were dried naturally and placed in a test tube. Fifteen tidy and healthy western flower thrips nymphs were put into the leaves. Three replicates were set for each treatment. The water treatment was set as control check. After the treatment, the treated tube were placed in a chamber of 24° C., 60%-70% relative humidity and day light. After 72 hours, the number of surviving insects was investigated, and the mortality was calculated.

[2] = test system: Tribolium confusum adults; test: Determination of Tribolium confusum adults (treated feeding bran, 72 h); conditions: for mortality at 600 µg/mL: 600 mg/L, read-out: mortality rates against Tribolium confusum adults; for mortality at 5 µg/mL / mortality at 20 µg/mL: read-out: Mortality (%) against Tribolium Confusum Adults
Method: as §1
The test liquid was prepared in the order from low dose to high dose according to the test design. Then, the liquid of different concentrations was added to feeding bran and uniformly stirred, and dried in the shade. Then, the resulting feeding bran was collected in a paper cup. Fifty Tribolium confusum adults with consistent size were put in the paper cup. Three replicates were set for each treatment. Control check was set. The treated test materials were put in an observation room under controlled conditions. After 72 h, the number of dead and surviving adults was investigated.

[3] = test system: Tetranychus cinnabarinus adults; test: Determination of acaricidal activity (spray on bean plant leaves with adult spider mites, mortality after 72 hours); conditions: after 72 hours, read-out: Mortality (%) against Tetranychus Cinnabarinus Adult; for mortality at 10 µg/mL: 10 mg/L; for mortality at 100 µg/mL: 100 mg/L; for mortality at 600 µg/mL: 600 mg/L
Method: as §1
The adult spider mites were put into two true leaves of bean plants. After the number of mites was investigated, the solution of certain concentrations of test compounds was sprayed by using a handheld Airbrush. Three replicates were set for each treatment. Then the leaves were maintained in a standard observation room. After 72 hours, the number of surviving mites was investigated, and the mortality rate was calculated. Compounds I-41, KC3, KC4 and MC were selected for parallel determination of activity against Tetranychus cinnabarinus adults.

Row | Compound | mortality at 10 µg/mL (armyworm) [%] | mortality at 10 µg/mL (diamondback moth) [%] | mortality at 600 µg/mL ([1]; after 72 hours) [%] | mortality at 600 µg/mL ([2]; after 72 h) [%] | also measured
1 | O=C(Nc1cccc(C(=O)Nc2c(I)cc(C(F)(C(F)(F)F)C(F)(F)F)cc2OC(F)F)c1F)c1ccc2c(c1)OC(F)(F)O2 [Compound I-1] | > 90 | > 90 | > 90 | > 90 | –
2 | CN(C(=O)c1ccc2c(c1)OC(F)(F)O2)c1cccc(C(=O)Nc2c(I)cc(C(F)(C(F)(F)F)C(F)(F)F)cc2OC(F)F)c1F [Compound I-2] | > 90 | > 90 | > 90 | > 90 | –
3 | O=C(Nc1cccc(C(=O)Nc2c(Br)cc(C(F)(C(F)(F)F)C(F)(F)F)cc2OC(F)F)c1F)c1ccc2c(c1)OC(F)(F)O2 [Compound I-41] | > 90 | > 90 | > 90 | > 90 | mortality at 10 µg/mL ([1]; 10 mg/L, after 72 hours): 90%; mortality at 100 µg/mL ([1]; 100 mg/L, after 72 hours): 95%; mortality at 10 µg/mL [3]: 87%; mortality at 100 µg/mL [3]: 100%; mortality at 600 µg/mL [3]: 100%
4 | CN(C(=O)c1ccc2c(c1)OC(F)(F)O2)c1cccc(C(=O)Nc2c(Br)cc(C(F)(C(F)(F)F)C(F)(F)F)cc2OC(F)F)c1F [Compound I-42, N-(2-bromo-6-difluoromethoxy-4-heptafluoroisopropylphenyl)-2-fluoro-3-(N-methyl-2,2-difluoro-1,3-benzodioxole-5-carboxamido) benzamide] | > 90 | > 90 | > 90 | > 90 | mortality at 10 µg/mL ([1]; 10 mg/L, after 72 hours): 91%; mortality at 100 µg/mL ([1]; 100 mg/L, after 72 hours): 100%; mortality at 5 µg/mL ([2]; 5 mg/L, after 72 h): 81%; mortality at 20 µg/mL ([2]; 20 mg/L, after 72 h): 100%
5 | CCN(C(=O)c1ccc2c(c1)OC(F)(F)O2)c1cccc(C(=O)Nc2c(Br)cc(C(F)(C(F)(F)F)C(F)(F)F)cc2OC(F)F)c1F [Compound I-43, N-(2-bromo-6-difluoromethoxy-4-heptafluoroisopropylphenyl)-2-fluoro-3-(N-ethyl-2,2-difluoro-1,3-benzodioxole-5-carboxamido) benzamide] | > 90 | > 90 | > 90 | > 90 | –
6 | CCCCN(C(=O)c1ccc2c(c1)OC(F)(F)O2)c1cccc(C(=O)Nc2c(Br)cc(C(F)(C(F)(F)F)C(F)(F)F)cc2OC(F)F)c1F [Compound I-46, N-(2-bromo-6-difluoromethoxy-4-heptafluoroisopropylphenyl)-2-fluoro-3-(N-n-butyl-2,2-difluoro-1,3-benzodioxole-5-carboxamido) benzamide] | > 90 | > 90 | > 90 | > 90 | –
7 | O=C(Nc1c(Br)cc(C(F)(C(F)(F)F)C(F)(F)F)cc1OC(F)F)c1cccc(N(CC2CC2)C(=O)c2ccc3c(c2)OC(F)(F)O3)c1F [Compound I-50, N-(2-bromo-6-difluoromethoxy-4-heptafluoroisopropylphenyl)-2-fluoro-3-(N-cyclopropylmethyl-2,2-difluoro-1,3-benzodioxole-5-carboxamido) benzamide] | > 90 | > 90 | > 90 | > 90 | –
8 | CC(C)=CCCC(C)CCN(C(=O)c1ccc2c(c1)OC(F)(F)O2)c1cccc(C(=O)Nc2c(Br)cc(C(F)(C(F)(F)F)C(F)(F)F)cc2OC(F)F)c1F (stereo not shown) [Compound I-57] | > 90 | > 90 | > 90 | > 90 | –
9 | CSCCCN(C(=O)c1ccc2c(c1)OC(F)(F)O2)c1cccc(C(=O)Nc2c(Br)cc(C(F)(C(F)(F)F)C(F)(F)F)cc2OC(F)F)c1F [Compound I-60, N-(2-bromo-6-difluoromethoxy-4-heptafluoroisopropylphenyl)-2-fluoro-3-(N-(3-methylthiopropyl)-2,2-difluoro-1,3-benzodioxole-5-carboxamido) benzamide] | > 90 | > 90 | > 90 | > 90 | –
10 | CN(C(=O)c1ccc2c(c1)OC(F)(F)O2)c1cccc(C(=O)Nc2c(Br)cc(C(F)(C(F)(F)F)C(F)(F)F)cc2OC(F)(F)F)c1F [Compound I-62, N-(2-bromo-4-heptafluoroisopropyl-6-trifluoromethoxyphenyl)-2-fluoro-3-(N-methyl-2,2-difluoro-1,3-benzodioxole-5-carboxamido) benzamide] | > 90 | > 90 | > 90 | > 90 | –
11 | O=C(Nc1cccc(C(=O)Nc2c(Cl)cc(C(F)(C(F)(F)F)C(F)(F)F)cc2OC(F)F)c1F)c1ccc2c(c1)OC(F)(F)O2 [Compound I-81] | > 90 | > 90 | > 90 | > 90 | –
12 | CN(C(=O)c1ccc2c(c1)OC(F)(F)O2)c1cccc(C(=O)Nc2c(Cl)cc(C(F)(C(F)(F)F)C(F)(F)F)cc2OC(F)F)c1F [Compound I-82] | > 90 | > 90 | > 90 | > 90 | –
13 | O=C(Nc1cccc(C(=O)Nc2c(OC(F)F)cc(C(F)(C(F)(F)F)C(F)(F)F)cc2C(F)(F)F)c1F)c1ccc2c(c1)OC(F)(F)O2 [Compound I-121] | > 90 | > 90 | > 90 | > 90 | –
14 | CN(C(=O)c1ccc2c(c1)OC(F)(F)O2)c1cccc(C(=O)Nc2c(OC(F)F)cc(C(F)(C(F)(F)F)C(F)(F)F)cc2C(F)(F)F)c1F [Compound I-122] | > 90 | > 90 | > 90 | > 90 | –
15 | CNC(=O)c1cc(C#N)cc(C)c1NC(=O)c1cc(Br)nn1-c1ncccc1Cl [Cyantraniliprole, reference compound] | – | – | – | – | mortality at 10 µg/mL ([1]; 72 h): 25%; mortality at 100 µg/mL ([1]; 72 h): 85%; mortality at 5 µg/mL ([2]; 72 h): 0%; mortality at 20 µg/mL ([2]; 72 h): 5%
16 | O=C(Nc1cccc(C(=O)Nc2c(Br)cc(C(F)(C(F)(F)F)C(F)(F)F)cc2Br)c1F)c1ccc2c(c1)OC(F)(F)O2 [KC1, reference compound] | – | – | – | – | mortality at 10 µg/mL ([1]; 10 mg/L, after 72 hours): 15%; mortality at 100 µg/mL ([1]; 100 mg/L, after 72 hours): 85%
17 | CN(C(=O)c1ccc2c(c1)OC(F)(F)O2)c1cccc(C(=O)Nc2c(Br)cc(C(F)(C(F)(F)F)C(F)(F)F)cc2Br)c1F [KC2, reference compound] | – | – | – | – | mortality at 10 µg/mL ([1]; 10 mg/L, after 72 hours): 59%; mortality at 100 µg/mL ([1]; 100 mg/L, after 72 hours): 90%; mortality at 5 µg/mL ([2]; 5 mg/L, after 72 h): 70%; mortality at 20 µg/mL ([2]; 20 mg/L, after 72 h): 76%
18 | CN(C(=O)c1ccccc1)c1cccc(C(=O)Nc2c(Br)cc(C(F)(C(F)(F)F)C(F)(F)F)cc2OC(F)F)c1F [MC] | – | – | – | – | mortality at 10 µg/mL ([1]; 10 mg/L, after 72 hours): 72%; mortality at 100 µg/mL ([1]; 100 mg/L, after 72 hours): 76%; mortality at 10 µg/mL [3]: 0%; mortality at 100 µg/mL [3]: 0%; mortality at 600 µg/mL [3]: 0%
19 | Spinetoram [reference compound] | – | – | – | – | Mortality (%) against Western Flower Thrips Nymphs ([1]; 10 mg/L, after 72 hours): 90%; Mortality (%) against Western Flower Thrips Nymphs ([1]; 100 mg/L, after 72 hours): 100%
